Source: patent US20230147588A1, “USE OF1,9-DECANEDIOL IN INHIBITING AMMONIA VOLATILIZATION FROM SOIL” (INSTITUTION OF SOIL SCIENCE, CHINESE ACADEMY OF SCIENCES, priority 2021, published 2023)

Key:
[1] = tested on: ammonia volatilization from soil; assay: Soil column culture: effects of different inhibitors on ammonia volatilization from soil (Test Example 2); conditions: 21 days; for inhibition of ammonia volatilization from soil compared with the urea treatment (U): 200 mg N per kg soil; for order of inhibition effects of ammonia volatilization, from high to low: suffix -100 / -500 = addition in soil in mg/kg, with urea
Description: A soil column culture method is used for the test (FIG. 1). The soil column is 18 centimeters (cm) in height and 5 cm in inner diameter, which is divided into a leak-proof layer, a soil-fertilizer mixed layer, a flooded layer, and an idle layer (also referred to as spare layer). A leak-proof pad and 1 cm thick quartz sand are placed in the leak-proof layer at a bottom of the soil column firstly to prevent soil leakage and simulate a real situation in the field, and then the experimental soil is added to the soil-fertilizer mixed layer, and after compaction, a bottom leaching switch is turned on and water is added to restore the soil activity. After one night of soil recovery activity, the bottom leaching switch is turned off, and the urea required for each treatment is mixed with 1,9-decanediol to prepare a mixed solution. The mixed solution is evenly applied to the soil-fertilizer mixture layer of the soil column, the water is added to maintain a flooded state, and the ammonia volatilization from soil is monitored for 21 consecutive days.
2.1 Test Soil: The Same as Test Example 1
2.2 test reagent: 1, 9-decanediol, the same as test example 1, dicyandiamide (DCD, C2H4N4), linolenic acid (LN, […]) and methyl 3-(4-hydroxyphenyl)propionate (MHPP, C10H12O3) are purchased from Sigma.
2.3 experimental treatments: urea treatment (U), DCD + urea treatment, LN + urea treatment, MHPP + urea treatment, and 1,9-decanediol + urea treatment are set in experiments, in which an addition of DCD in soil is 20 mg/kg, and additions of LN, MHPP and 1,9-decanediol in soil each includes 100 mg/kg and 500 mg/kg, numbered as: DCD, LN-100, LN-500, MHPP-100, MHPP-500, 1,9-D-100, and 1,9-D-500. Each treatment is repeated three times. The nitrogen application rate is 200 mg nitrogen per kilogram soil.
2.4 Experimental Steps: The Same as the Test Example 1

[2] = tested on: ammonia volatilization from soil; assay: Soil column culture: effects of 1,9-decanediol on ammonia volatilization from soil (Test Example 1); conditions: paddy soil column, 21 days
Experimental: 1.1 test soil: the test soil type is paddy soil, and the texture is sandy loam. It is collected from 0~20 centimeters (cm) topsoil of the experimental field in Yingtan City, Jiangxi Province (28°15′N, 116°55′E), sieved with a 2 millimeters (mm) sieve, and mixed evenly. See Table 1 for basic physical and chemical properties.
1.3 experimental treatment: urea treatment (U) and 1,9-decanediol + urea treatment are set in experiments. Among them, 1, 9-decanediol is added in soil at four levels of 100 mg/kg, 200 mg/kg, 500 mg/kg, and 1000 mg/kg, numbered as: 1, 9-D-100, 1, 9-D-200, 1, 9-D-500, and 1, 9-D-1000 respectively. Each treatment is repeated three times. The nitrogen application rate is 200 mg nitrogen per kilogram soil.
A soil column culture method is used for the test (FIG. 1). The soil column is 18 centimeters (cm) in height and 5 cm in inner diameter, which is divided into a leak-proof layer, a soil-fertilizer mixed layer, a flooded layer, and an idle layer (also referred to as spare layer). […] The mixed solution is evenly applied to the soil-fertilizer mixture layer of the soil column, the water is added to maintain a flooded state, and the ammonia volatilization from soil is monitored for 21 consecutive days.

nitrification process = conditions: at low concentration; cited from earlier work
[3] = paddy soil column, additions 100 and 500 mg/kg with urea

SMILES | inhibition of ammonia volatilization from soil compared with the urea treatment (U) [1, 3] | order of inhibition effects of ammonia volatilization, from high to low [1] | dose dependence of the inhibition effect of ammonia volatilization ([2]; 100 to 1000 mg/kg in soil with urea) | total amount of ammonia volatilization from soil compared with the treatment (U) without 1,9-decanediol ([2]; flooded, 100, 200, 500, 1000 mg/kg in soil with urea, 200 mg N per kg soil) | inhibition of the nitrification process (nitrification process) | ammonia volatilization from soil compared with LN and MHPP treatments [1, 3]
COC(=O)CCc1ccc(O)cc1 [MHPP, methyl 3-(4-hydroxyphenyl)propionate, reference compound] | can inhibit ammonia volatilization from soil | 1,9-D-500 > LN-500 > 1,9-D-100 >MHPP-500 > LN-100 > MHPP-100 |  |  |  | 
CC(O)CCCCCCCCO (centres unmarked) [1,9-decanediol] | can inhibit ammonia volatilization from soil | 1,9-D-500 > LN-500 > 1,9-D-100 >MHPP-500 > LN-100 > MHPP-100 | more obvious with the increase of the dosage | significantly reduce the total amount of ammonia volatilization from soil | can inhibit the nitrification process at low concentration | significantly lower than that from soil treated with LN and MHPP
